{
  "source": "patent US20100305098A1",
  "about": "“METHODS OF USE” (priority 2007, published 2010)",
  "key": {"Leukotriene, BLT (LTB4)": {"molecular_target": "T1, Leukotriene, BLT (LTB4) (Homo sapiens, UniProt Q15722)", "T1 construct": "purchased MDS Pharma (outsourced assay) 250510", "T1 sequence (Q15722 whole entry)": "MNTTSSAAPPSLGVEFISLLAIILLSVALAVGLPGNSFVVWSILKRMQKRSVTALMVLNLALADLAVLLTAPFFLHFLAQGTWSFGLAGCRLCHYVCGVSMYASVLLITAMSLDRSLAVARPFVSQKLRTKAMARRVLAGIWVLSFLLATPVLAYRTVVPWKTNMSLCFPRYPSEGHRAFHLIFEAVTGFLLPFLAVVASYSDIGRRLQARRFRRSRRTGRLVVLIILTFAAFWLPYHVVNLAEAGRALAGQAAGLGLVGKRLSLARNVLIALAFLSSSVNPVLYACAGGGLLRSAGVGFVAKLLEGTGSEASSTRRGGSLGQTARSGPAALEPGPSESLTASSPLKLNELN", "experiment": "Competitive radioligand binding (MDS Pharma)"}, "Prostanoid CRTH2": {"molecular_target": "T2, Prostanoid CRTH2 (Homo sapiens, UniProt Q9Y5Y4)", "T2 construct": "purchased MDS Pharma (outsourced assay)", "T2 sequence (Q9Y5Y4 whole entry)": "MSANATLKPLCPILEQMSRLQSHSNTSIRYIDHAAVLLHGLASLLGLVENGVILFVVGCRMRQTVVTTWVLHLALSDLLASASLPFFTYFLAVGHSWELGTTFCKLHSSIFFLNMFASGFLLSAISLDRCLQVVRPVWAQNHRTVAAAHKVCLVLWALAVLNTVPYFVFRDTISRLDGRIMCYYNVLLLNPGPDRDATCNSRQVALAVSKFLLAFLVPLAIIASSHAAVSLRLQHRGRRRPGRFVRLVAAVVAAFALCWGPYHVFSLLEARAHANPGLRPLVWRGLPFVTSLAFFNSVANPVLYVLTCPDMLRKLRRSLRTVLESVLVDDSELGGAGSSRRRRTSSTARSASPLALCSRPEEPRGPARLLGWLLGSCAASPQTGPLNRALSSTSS", "experiment": "Competitive radioligand binding (MDS Pharma)"}, "Mouse CD4+ T cells": {"system": "Mouse CD4+ T cells", "experiment": "IL-23 induced Th17 expansion", "type": "cell-based", "conditions": "120 h, anti-TCR/anti-CD28 mAb and IL-23 (30 ng/ml), 5 days, FACS, read-out: IC50 for reduction of IL-23-induced Th17-producing cells", "method": "IL-23 induced Th17 expansion. CD4^+ T cells were isolated from C57BL/6 mice and activated with anti-TCR (1 μg/ml plate-bound) and anti-CD28 (2 μg/ml soluble) with or without IL-23 (30 ng/ml) for 5 days. IL-17 producing cells were analyzed by IL-17 intracellular staining as described by manufacture (BD).\nThe effect of ER-819924-01 on IL-23-induced Th17 expansion was studied in vitro (FIG. 9). Mouse CD4^+ T cells were cultured with anti-TCR/anti-CD28 mAb and IL-23 (30 ng/ml) in the presence or absence of ER-819924-01 or anti-PGE2 Ab for 5 days. IL-17 producing T cells were analyzed by FACS of intracellular staining. ER-819924-01 reduced the number of IL-23-induced Th17-producing cells with an IC50 value of ˜10-100 nM."}, "5-HT1A": {"molecular_target": "T3, 5-HT1A (Homo sapiens, UniProt P08908)", "T3 construct": "purchased Millipore (outsourced screen)", "experiment": "FLIPR functional screen", "type": "cell-based", "conditions": "antagonist mode"}, "5-HT1B": {"molecular_target": "T4, 5-HT1B (Homo sapiens, UniProt P28222)", "T4 construct": "purchased Millipore (outsourced screen)", "experiment": "FLIPR functional screen", "type": "cell-based", "conditions": "antagonist mode"}, "ADRA1A": {"molecular_target": "T5, ADRA1A (Homo sapiens, UniProt P35348)", "T5 construct": "purchased Millipore (outsourced screen)", "T5 sequence (P35348 whole entry)": "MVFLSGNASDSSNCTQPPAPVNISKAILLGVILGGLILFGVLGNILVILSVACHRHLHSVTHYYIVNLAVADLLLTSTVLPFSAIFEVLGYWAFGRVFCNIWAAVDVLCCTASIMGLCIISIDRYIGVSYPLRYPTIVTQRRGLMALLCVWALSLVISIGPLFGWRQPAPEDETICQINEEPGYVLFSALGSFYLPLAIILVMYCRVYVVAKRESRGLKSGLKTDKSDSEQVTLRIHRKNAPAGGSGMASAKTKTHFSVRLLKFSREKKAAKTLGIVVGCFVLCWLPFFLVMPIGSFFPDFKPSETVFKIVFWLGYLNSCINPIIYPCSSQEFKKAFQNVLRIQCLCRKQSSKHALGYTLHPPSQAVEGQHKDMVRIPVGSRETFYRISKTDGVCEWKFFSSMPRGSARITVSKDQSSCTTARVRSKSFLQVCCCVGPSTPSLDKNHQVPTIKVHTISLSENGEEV", "experiment": "FLIPR functional screen", "type": "cell-based", "conditions": "antagonist mode"}, "BB2": {"molecular_target": "T6, BB2 (Homo sapiens, UniProt P30550)", "T6 construct": "Millipore", "experiment": "FLIPR functional screen", "type": "cell-based", "conditions": "antagonist mode"}, "CB2": {"molecular_target": "T7, CB2 (Homo sapiens, UniProt P34972)", "T7 construct": "Millipore", "T7 sequence (P34972 whole entry, species assumed)": "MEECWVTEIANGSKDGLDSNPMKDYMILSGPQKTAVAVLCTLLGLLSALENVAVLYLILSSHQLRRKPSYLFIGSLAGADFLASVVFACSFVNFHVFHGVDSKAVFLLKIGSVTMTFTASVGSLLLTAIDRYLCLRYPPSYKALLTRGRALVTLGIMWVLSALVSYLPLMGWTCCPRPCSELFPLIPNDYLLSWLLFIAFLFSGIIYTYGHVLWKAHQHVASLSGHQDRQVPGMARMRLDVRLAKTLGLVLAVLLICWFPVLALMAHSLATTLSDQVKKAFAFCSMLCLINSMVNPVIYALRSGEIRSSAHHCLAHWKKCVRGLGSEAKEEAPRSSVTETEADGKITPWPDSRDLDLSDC", "experiment": "FLIPR functional screen", "type": "cell-based", "conditions": "antagonist mode"}, "CCR1": {"molecular_target": "T8, CCR1 (Homo sapiens, UniProt P32246)", "T8 construct": "Millipore", "T8 sequence (P32246 whole entry, species assumed)": "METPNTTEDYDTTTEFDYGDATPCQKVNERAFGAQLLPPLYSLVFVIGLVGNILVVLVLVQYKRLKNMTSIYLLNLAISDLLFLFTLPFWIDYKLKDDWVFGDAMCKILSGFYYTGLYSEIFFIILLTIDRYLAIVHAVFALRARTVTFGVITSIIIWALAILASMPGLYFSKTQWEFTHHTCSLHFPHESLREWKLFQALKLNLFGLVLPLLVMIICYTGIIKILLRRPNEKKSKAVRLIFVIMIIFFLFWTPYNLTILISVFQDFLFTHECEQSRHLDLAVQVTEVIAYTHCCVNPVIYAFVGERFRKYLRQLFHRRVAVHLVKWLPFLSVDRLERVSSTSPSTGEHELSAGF", "experiment": "FLIPR functional screen", "type": "cell-based", "conditions": "antagonist mode"}, "CRF1": {"molecular_target": "T9, CRF1 (Homo sapiens, UniProt P34998)", "T9 construct": "Millipore", "T9 sequence (P34998 24-415)": "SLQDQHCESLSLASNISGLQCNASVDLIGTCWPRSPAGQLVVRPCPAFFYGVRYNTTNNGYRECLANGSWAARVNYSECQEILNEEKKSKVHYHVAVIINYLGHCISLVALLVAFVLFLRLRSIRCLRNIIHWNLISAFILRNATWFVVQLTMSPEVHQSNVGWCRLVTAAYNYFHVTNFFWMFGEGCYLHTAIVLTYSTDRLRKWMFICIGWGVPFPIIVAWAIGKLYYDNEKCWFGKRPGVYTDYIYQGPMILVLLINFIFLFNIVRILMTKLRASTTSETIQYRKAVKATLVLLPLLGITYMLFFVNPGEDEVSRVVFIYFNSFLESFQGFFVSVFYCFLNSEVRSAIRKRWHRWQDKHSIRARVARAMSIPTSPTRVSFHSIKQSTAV", "experiment": "FLIPR functional screen", "type": "cell-based", "conditions": "antagonist mode"}, "CXCR4": {"molecular_target": "T10, CXCR4 (Homo sapiens, UniProt P61073)", "T10 construct": "Millipore", "experiment": "FLIPR functional screen", "type": "cell-based", "conditions": "antagonist mode"}, "CYSLT2": {"molecular_target": "T11, CYSLT2 (Homo sapiens, UniProt Q9NS75)", "T11 construct": "Millipore", "experiment": "FLIPR functional screen", "type": "cell-based", "conditions": "antagonist mode"}, "D2": {"molecular_target": "T12, D2 (Homo sapiens, UniProt P14416)", "T12 construct": "Millipore", "experiment": "FLIPR functional screen", "type": "cell-based", "conditions": "antagonist mode"}, "EP3": {"molecular_target": "T13, EP3 (Homo sapiens, UniProt P43115)", "T13 construct": "Millipore", "T13 sequence (P43115 whole entry)": "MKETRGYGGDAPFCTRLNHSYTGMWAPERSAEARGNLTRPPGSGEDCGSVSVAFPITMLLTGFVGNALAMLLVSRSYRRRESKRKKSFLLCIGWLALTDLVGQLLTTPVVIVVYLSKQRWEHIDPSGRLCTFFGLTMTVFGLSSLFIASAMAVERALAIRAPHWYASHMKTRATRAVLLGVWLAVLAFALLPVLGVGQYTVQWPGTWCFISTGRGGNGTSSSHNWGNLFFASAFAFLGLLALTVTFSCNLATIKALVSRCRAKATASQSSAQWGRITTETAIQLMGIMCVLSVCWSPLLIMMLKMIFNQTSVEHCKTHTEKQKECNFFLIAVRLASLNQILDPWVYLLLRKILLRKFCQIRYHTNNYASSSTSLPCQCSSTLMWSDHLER", "experiment": "FLIPR functional screen", "type": "cell-based", "conditions": "antagonist mode"}, "ETA": {"molecular_target": "T14, ETA (Homo sapiens, UniProt P25101)", "T14 construct": "Millipore", "experiment": "FLIPR functional screen", "type": "cell-based", "conditions": "antagonist mode"}, "ETB": {"molecular_target": "T15, ETB (Homo sapiens, UniProt P24530)", "T15 construct": "Millipore", "experiment": "FLIPR functional screen", "type": "cell-based", "conditions": "antagonist mode"}, "GABA": {"molecular_target": "T16, GABA (Homo sapiens, UniProt Q9UBS5)", "T16 construct": "Millipore", "experiment": "FLIPR functional screen", "type": "cell-based", "conditions": "antagonist mode"}, "GAL2": {"molecular_target": "T17, GAL2 (Homo sapiens, UniProt O43603)", "T17 construct": "Millipore", "experiment": "FLIPR functional screen", "type": "cell-based", "conditions": "antagonist mode"}, "H1": {"molecular_target": "T18, H1 (Homo sapiens, UniProt P35367)", "T18 construct": "Millipore", "T18 sequence (P35367 whole entry)": "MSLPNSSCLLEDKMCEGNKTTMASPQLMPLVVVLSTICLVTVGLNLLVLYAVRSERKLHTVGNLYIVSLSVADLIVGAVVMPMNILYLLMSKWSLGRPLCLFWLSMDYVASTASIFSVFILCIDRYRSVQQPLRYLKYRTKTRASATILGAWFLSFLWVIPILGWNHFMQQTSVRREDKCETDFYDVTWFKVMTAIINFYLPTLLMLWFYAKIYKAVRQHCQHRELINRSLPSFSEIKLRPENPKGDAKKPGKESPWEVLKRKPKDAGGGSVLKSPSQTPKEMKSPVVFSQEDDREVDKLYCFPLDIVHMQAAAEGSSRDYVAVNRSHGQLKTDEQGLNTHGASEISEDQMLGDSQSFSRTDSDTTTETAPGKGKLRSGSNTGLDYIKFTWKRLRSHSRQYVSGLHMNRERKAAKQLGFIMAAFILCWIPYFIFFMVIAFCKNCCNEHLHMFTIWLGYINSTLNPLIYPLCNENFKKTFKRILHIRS", "experiment": "FLIPR functional screen", "type": "cell-based", "conditions": "antagonist mode"}, "IP1": {"molecular_target": "T19, IP1 (Homo sapiens, UniProt P43119)", "T19 construct": "Millipore", "experiment": "FLIPR functional screen", "type": "cell-based", "conditions": "antagonist mode"}, "MC4": {"molecular_target": "T20, MC4 (Homo sapiens, UniProt P32245)", "T20 construct": "Millipore", "experiment": "FLIPR functional screen", "type": "cell-based", "conditions": "antagonist mode"}, "NOP": {"molecular_target": "T21, NOP (Homo sapiens, UniProt P41146)", "T21 construct": "Millipore", "T21 sequence (P41146 whole entry)": "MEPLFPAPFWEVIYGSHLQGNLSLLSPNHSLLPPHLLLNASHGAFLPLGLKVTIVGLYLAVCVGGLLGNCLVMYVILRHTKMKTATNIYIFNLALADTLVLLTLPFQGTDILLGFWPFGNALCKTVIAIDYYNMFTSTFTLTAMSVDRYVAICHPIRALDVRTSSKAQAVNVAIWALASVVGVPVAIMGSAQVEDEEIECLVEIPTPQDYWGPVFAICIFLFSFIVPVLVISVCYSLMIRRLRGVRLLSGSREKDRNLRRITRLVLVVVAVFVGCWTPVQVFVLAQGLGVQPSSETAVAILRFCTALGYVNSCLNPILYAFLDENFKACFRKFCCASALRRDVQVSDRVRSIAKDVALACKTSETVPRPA", "experiment": "FLIPR functional screen", "type": "cell-based", "conditions": "antagonist mode"}, "PAC1": {"molecular_target": "T22, PAC1 (Homo sapiens, UniProt P41586)", "T22 construct": "Millipore", "experiment": "FLIPR functional screen", "type": "cell-based", "conditions": "antagonist mode"}, "PAF": {"molecular_target": "T23, PAF (Homo sapiens, UniProt P25105)", "T23 construct": "Millipore", "experiment": "FLIPR functional screen", "type": "cell-based", "conditions": "antagonist mode"}, "PK2": {"molecular_target": "T24, PK2 (Homo sapiens, UniProt Q8NFJ6)", "T24 construct": "Millipore", "T24 sequence (Q8NFJ6 whole entry)": "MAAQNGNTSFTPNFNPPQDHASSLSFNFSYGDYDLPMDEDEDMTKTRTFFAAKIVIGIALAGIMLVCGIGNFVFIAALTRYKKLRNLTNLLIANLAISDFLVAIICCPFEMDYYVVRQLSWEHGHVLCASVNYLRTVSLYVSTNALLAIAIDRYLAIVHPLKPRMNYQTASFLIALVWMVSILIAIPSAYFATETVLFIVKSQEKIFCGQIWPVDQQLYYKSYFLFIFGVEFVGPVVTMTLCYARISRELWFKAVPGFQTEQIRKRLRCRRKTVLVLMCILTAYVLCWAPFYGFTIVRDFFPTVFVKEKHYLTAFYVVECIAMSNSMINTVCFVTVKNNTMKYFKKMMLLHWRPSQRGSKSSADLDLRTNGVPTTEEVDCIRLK", "experiment": "FLIPR functional screen", "type": "cell-based", "conditions": "antagonist mode"}, "PRP": {"molecular_target": "T25, PRP (Homo sapiens, UniProt P49683)", "T25 construct": "Millipore", "experiment": "FLIPR functional screen", "type": "cell-based", "conditions": "antagonist mode"}, "S1P4": {"molecular_target": "T26, S1P4 (Homo sapiens, UniProt O95977)", "T26 construct": "Millipore", "experiment": "FLIPR functional screen", "type": "cell-based", "conditions": "antagonist mode"}, "S1P5": {"molecular_target": "T27, S1P5 (Homo sapiens, UniProt Q9H228)", "T27 construct": "Millipore", "T27 sequence (Q9H228 whole entry, species assumed)": "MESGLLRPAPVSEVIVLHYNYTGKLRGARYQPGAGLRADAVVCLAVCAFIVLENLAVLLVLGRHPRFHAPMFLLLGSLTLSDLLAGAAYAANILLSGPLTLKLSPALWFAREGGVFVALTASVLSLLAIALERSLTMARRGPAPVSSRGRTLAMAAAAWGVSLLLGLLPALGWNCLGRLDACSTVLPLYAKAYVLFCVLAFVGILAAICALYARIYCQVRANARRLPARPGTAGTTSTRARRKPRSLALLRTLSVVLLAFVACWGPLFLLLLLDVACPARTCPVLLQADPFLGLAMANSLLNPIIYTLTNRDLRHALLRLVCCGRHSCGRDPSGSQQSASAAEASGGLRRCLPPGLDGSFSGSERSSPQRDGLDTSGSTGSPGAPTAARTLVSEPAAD", "experiment": "FLIPR functional screen", "type": "cell-based", "conditions": "antagonist mode"}, "V1B": {"molecular_target": "T28, V1B (Homo sapiens, UniProt P47901)", "T28 construct": "Millipore", "experiment": "FLIPR functional screen", "type": "cell-based", "conditions": "antagonist mode"}, "VPAC1": {"molecular_target": "T29, VPAC1 (Homo sapiens, UniProt P32241)", "T29 construct": "Millipore", "T29 sequence (P32241 31-457)": "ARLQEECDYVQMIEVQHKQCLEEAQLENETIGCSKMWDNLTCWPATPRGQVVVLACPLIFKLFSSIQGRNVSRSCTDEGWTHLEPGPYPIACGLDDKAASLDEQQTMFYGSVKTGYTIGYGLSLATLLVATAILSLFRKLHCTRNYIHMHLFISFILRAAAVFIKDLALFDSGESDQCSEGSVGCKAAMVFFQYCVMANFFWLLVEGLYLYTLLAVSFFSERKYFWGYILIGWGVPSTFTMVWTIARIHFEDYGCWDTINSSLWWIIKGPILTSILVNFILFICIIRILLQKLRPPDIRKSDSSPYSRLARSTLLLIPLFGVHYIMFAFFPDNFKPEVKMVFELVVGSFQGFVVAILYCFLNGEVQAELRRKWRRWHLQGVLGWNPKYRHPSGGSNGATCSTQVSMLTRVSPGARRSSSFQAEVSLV", "experiment": "FLIPR functional screen", "type": "cell-based", "conditions": "antagonist mode"}, "Y1": {"molecular_target": "T30, Y1 (Homo sapiens, UniProt P25929)", "T30 construct": "Millipore", "experiment": "FLIPR functional screen", "type": "cell-based", "conditions": "antagonist mode"}},
  "data": [
    {"smiles": "CCN1C(=O)N2Cc3cc(OC)cc(OC)c3[C@@H](C)C=C2C12CCN(Cc1cccn1C)CC2", "note": "[ER-819924-01]", "values": [
      {"measurement": "% INHIBITION", "setting": "Leukotriene, BLT (LTB4); CONC. 0.1 μm", "value": "−12", "unit": "%"},
      {"measurement": "% INHIBITION", "setting": "Leukotriene, BLT (LTB4); CONC. 1 μm", "value": "−11", "unit": "%"},
      {"measurement": "% INHIBITION", "setting": "Prostanoid CRTH2; CONC. 0.1 μm", "value": 8, "unit": "%"},
      {"measurement": "% INHIBITION", "setting": "Prostanoid CRTH2; CONC. 1 μm", "value": "−5", "unit": "%"},
      {"measurement": "IC50", "setting": "Mouse CD4+ T cells", "value": "10 to 100", "unit": "nM"},
      {"measurement": "inhibition at 1 µM", "setting": "5-HT1A", "value": -1.6, "unit": "%"},
      {"measurement": "inhibition at 1 µM", "setting": "5-HT1B", "value": 3, "unit": "%"},
      {"measurement": "inhibition at 1 µM", "setting": "ADRA1A", "value": 17.6, "unit": "%"},
      {"measurement": "inhibition at 1 µM", "setting": "BB2", "value": 0.6, "unit": "%"},
      {"measurement": "inhibition at 1 µM", "setting": "CB2", "value": 9.3, "unit": "%"},
      {"measurement": "inhibition at 1 µM", "setting": "CCR1", "value": -8.2, "unit": "%"},
      {"measurement": "inhibition at 1 µM", "setting": "CRF1", "value": 3.9, "unit": "%"},
      {"measurement": "inhibition at 1 µM", "setting": "CXCR4", "value": -11.8, "unit": "%"},
      {"measurement": "inhibition at 1 µM", "setting": "CYSLT2", "value": 4.5, "unit": "%"},
      {"measurement": "inhibition at 1 µM", "setting": "D2", "value": -4.6, "unit": "%"},
      {"measurement": "inhibition at 1 µM", "setting": "EP3", "value": 7.8, "unit": "%"},
      {"measurement": "inhibition at 1 µM", "setting": "ETA", "value": 9, "unit": "%"},
      {"measurement": "inhibition at 1 µM", "setting": "ETB", "value": 6.2, "unit": "%"},
      {"measurement": "inhibition at 1 µM", "setting": "GABA", "value": 6, "unit": "%"},
      {"measurement": "inhibition at 1 µM", "setting": "GAL2", "value": 8.1, "unit": "%"},
      {"measurement": "inhibition at 1 µM", "setting": "H1", "value": -39.3, "unit": "%"},
      {"measurement": "inhibition at 1 µM", "setting": "IP1", "value": 9.8, "unit": "%"},
      {"measurement": "inhibition at 1 µM", "setting": "MC4", "value": -5.1, "unit": "%"},
      {"measurement": "inhibition at 1 µM", "setting": "NOP", "value": 1, "unit": "%"},
      {"measurement": "inhibition at 1 µM", "setting": "PAC1", "value": 4.1, "unit": "%"},
      {"measurement": "inhibition at 1 µM", "setting": "PAF", "value": 5.4, "unit": "%"},
      {"measurement": "inhibition at 1 µM", "setting": "PK2", "value": -3.8, "unit": "%"},
      {"measurement": "inhibition at 1 µM", "setting": "PRP", "value": 5.4, "unit": "%"},
      {"measurement": "inhibition at 1 µM", "setting": "S1P4", "value": -6.6, "unit": "%"},
      {"measurement": "inhibition at 1 µM", "setting": "S1P5", "value": -7.4, "unit": "%"},
      {"measurement": "inhibition at 1 µM", "setting": "V1B", "value": 4.7, "unit": "%"},
      {"measurement": "inhibition at 1 µM", "setting": "VPAC1", "value": 4.6, "unit": "%"},
      {"measurement": "inhibition at 1 µM", "setting": "Y1", "value": -22.7, "unit": "%"}
    ]}
  ]
}
